Test results reported in US6593084B2, “Carcinogen assay” (priority 1998, dated 2003).

Key:
mice = details: cited from earlier work
Salmonella = details: cited from earlier work
[1] = system: primary mouse keratinocytes; assay: Differential display and Northern blot hybridization of mRNAs in treated primary mouse keratinocytes; type: cell-based; details: 24 hours treatment
Method: Cultures of newborn mouse keratinocytes were established essentially as described by H. Hennings (In Keratinocyte Methods, Cambridge University Press (1994), pages 21-23). Briefly, mice two to three days postpartum were sacrificed by metaphane narcosis, rinsed in 70% ethanol, and kept on ice. Skins were peeled off, stretched out and floated (with epidermis facing upward) on the surface of a 0.25% trypsin solution in Ca^+2, Mg^+2 free PBS overnight at 4° C. Skins were transferred to a sterile surface, the epidermis was separated from dermis, the epidermis was minced, and the mixture stirred in serum-free keratinocyte growth medium (KGM, Clonetics). This cell suspension was filtered through nylon gauze, cells were centrifuged (2,000 rpm for 5 min), resuspended in KGM with 20 μM Ca^+2 (20 KGM), and then the cells were counted and plated (approximately 2×10^6 per 10 cm plate coated with mouse collagen type IV in 20 KGM) and the cell cultures were incubated at 37° C. with a 7% CO2. After 16-24 hours, cells were washed in Ca^+2, Mg^+2 free phosphate buffered saline (PBS), and cultivated on 20 KGM, with the cell culture medium changed (that is, old medium discarded and fresh medium provided) each other day. For induction of terminal differentiation, medium was changed, usually on the sixth day of cultivation of the keratinocytes, to KGM containing 1.2 mM Ca^+2, and the keratinocytes were cultivated for 24 hours before RNA isolation.
For phorbol-myristate acetate (TPA) treatment, keratinocyte cultures were fed with 20 KGM containing 0.1 μg/ml of 12-O-tetradecanoyil-13-phorbol-acetate for 24 hours, before isolation of RNA.
Total RNA was isolated by acid phenol procedure using TRI Reagent™ (Molecular Research Center, Inc.) and according to manufacturer's instructions from (1) terminally differentiated keratinocytes, cultivated in KGM medium containing 1.2 mM Ca^+2 for 24 hours; (2) TPA-treated keratinocytes, cultivated in KGM containing 20 μM Ca^+2 and 0.1 μg/ml TPA for 24 hours; and (3) control keratinocyte cultures fed 24 hours before RNA isolation with 20 KGM containing, in some experiments, 0.05% DMSO (dimethyl sulphoxide).
Differential display of total RNAs from keratinocyte cultures (1), (2), and (3) was performed with Delta-RNA Fingerprinting Kit™ (Clontech) according to the manufacturer's instructions. Briefly, cDNAs were synthesized from total RNAs using Murine Moloney Leukemia Virus (MMLV) reverse transcriptase. Two dilutions of cDNA were prepared (diluted 10-fold and 40-fold). Each total RNA sample was used to synthesize cDNA that was amplified using polymerase chain reaction (PCR) methodology using P & T primers in presence of [α-^33P] dATP. […] The appearance of a band from a sample that was not present in the control lane indicated overexpression and the disappearance or reduction in intensity of a band indicated suppression of synthesis. The candidate bands were cut from the sequencing gel and reamplified using the original primer pairs. Following electrophoresis on agarose gels, reamplified DNA fragments were cut out and purified using a QIAEX II gel extraction kit™ (QIAGEN). The DNAs were labeled and used to confirm the differential expression by hybridization with Northern blots of Poly (A)^+ containing RNA isolated from total RNAs (1), (2), and (3). Equal quantities of these RNAs were electrophoresed on agarose gels and blotted to nitrocellulose filters. Equal loading of RNA was confirmed by hybridization with a β-actin probe, whose mRNA was assumed to be present in approximately equal amounts in all of the preparations. The blots were stripped of radiolabel and then used to confirm the differential synthesis of a fragment. Upon confirmation, the fragment was cloned into pCRII using the TA cloning kit™ (Introvitrogen). Cloned DNA fragments were sequenced with SequiTerm Excel II kit™ (Epicentre Technology).

mammalian cells = mammalian cells in vitro; cited from earlier work
mouse liver = assay: Differential gene expression in livers of DMBA treated mice, Atlas membranes; details: liver of DMBA treated animal vs control animal

SMILES: ClC=C(Cl)Cl [TCE, trichloroethylene]
- induction of hepatocellular carcinomas (mice): induce hepatocellular carcinomas
- Salmonella mutagenicity test (Salmonella): negative

SMILES: CCCCCCCCCCCCCC(=O)O[C@@H]1[C@@H](C)[C@@]2(O)[C@@H](C=C(CO)C[C@]3(O)C(=O)C(C)=C[C@@H]23)[C@@H]2C(C)(C)[C@]12OC(C)=O [TPA, 12-O-tetradecanoyil-13-phorbol-acetate]
- Changes in Expression (Comparative to Untreated cells) ([1]; gene fragment 2552/4, 5.5 kb RNA): Suppressed in TPA-
- Changes in Expression (Comparative to Untreated cells) ([1]; gene fragment 2672/1, Mouse ESTs AA492919, AA607761): Suppressed in TPA-
- Changes in Expression (Comparative to Untreated cells) ([1]; gene fragment 4314, AA109991, AA561914, AA067670, AA864127): Overexpressed in
- Changes in Expression (Comparative to Untreated cells) ([1]; gene fragment 19102/3, Mouse ESTs AA038613, W14382): Suppressed in TPA-
- Changes in Expression (Comparative to Untreated cells) ([1]; gene fragment 31774/6/8, 6 kb RNA, Mouse ESTs AA423711, W82493): Suppressed in TPA-
- Changes in Expression (Comparative to Untreated cells) ([1]; gene fragment 31777, Mouse EST AA073833): Overexpressed in
- Changes in Expression (Comparative to Untreated cells) ([1]; gene fragment 83442, Mouse Connexin 26): Overexpressed in
- Changes in Expression (Comparative to Untreated cells) ([1]; gene fragment 110176/4, homologous to Mouse Cytokeratin Endo A): Suppressed in TPA-
- Changes in Expression (Comparative to Untreated cells) ([1]; gene fragment 3177715, Mouse ESTs AA423711, AA637015): Suppressed in TPA-

SMILES: c1ccoc1 [Furan]
- induction of hepatocellular carcinomas (mice): induce hepatocellular carcinomas
- Salmonella mutagenicity test (Salmonella): negative
- chromosomal aberrations (mammalian cells): induces
- gene mutations (mammalian cells): induces
- sister chromatide exchanges (mammalian cells): induces

SMILES: Cc1c2ccccc2c(C)c2c1ccc1ccccc12 [DMBA, 7, 12-dimethyl benz[α] anthracene]
- differential pattern of gene expression in liver (mouse liver): differential expression was observed
